Where a name gives a salt, the structure may show the parent alone.
Each molecule was assayed against T1, human TRPM8 (Homo sapiens, UniProt Q7Z2W7) (assay: Luminescence readout assay for measuring intracellular calcium (aequorin, CHO cells expressing human TRPM8; icilin, L-menthol or cold activation)). Settings: CHO cells expressing human TRPM8, icilin activation (1 μM), aequorin luminescence; read-out: hTRPM8 IC50.
T1 construct: expressed in transfected cells; host or cells: Chinese hamster ovary (CHO) cells, T-REx tetracycline-inducible expression system (Invitrogen); co-transfected with pcDNA3.1 aequorin
T1 sequence (Q7Z2W7 whole entry): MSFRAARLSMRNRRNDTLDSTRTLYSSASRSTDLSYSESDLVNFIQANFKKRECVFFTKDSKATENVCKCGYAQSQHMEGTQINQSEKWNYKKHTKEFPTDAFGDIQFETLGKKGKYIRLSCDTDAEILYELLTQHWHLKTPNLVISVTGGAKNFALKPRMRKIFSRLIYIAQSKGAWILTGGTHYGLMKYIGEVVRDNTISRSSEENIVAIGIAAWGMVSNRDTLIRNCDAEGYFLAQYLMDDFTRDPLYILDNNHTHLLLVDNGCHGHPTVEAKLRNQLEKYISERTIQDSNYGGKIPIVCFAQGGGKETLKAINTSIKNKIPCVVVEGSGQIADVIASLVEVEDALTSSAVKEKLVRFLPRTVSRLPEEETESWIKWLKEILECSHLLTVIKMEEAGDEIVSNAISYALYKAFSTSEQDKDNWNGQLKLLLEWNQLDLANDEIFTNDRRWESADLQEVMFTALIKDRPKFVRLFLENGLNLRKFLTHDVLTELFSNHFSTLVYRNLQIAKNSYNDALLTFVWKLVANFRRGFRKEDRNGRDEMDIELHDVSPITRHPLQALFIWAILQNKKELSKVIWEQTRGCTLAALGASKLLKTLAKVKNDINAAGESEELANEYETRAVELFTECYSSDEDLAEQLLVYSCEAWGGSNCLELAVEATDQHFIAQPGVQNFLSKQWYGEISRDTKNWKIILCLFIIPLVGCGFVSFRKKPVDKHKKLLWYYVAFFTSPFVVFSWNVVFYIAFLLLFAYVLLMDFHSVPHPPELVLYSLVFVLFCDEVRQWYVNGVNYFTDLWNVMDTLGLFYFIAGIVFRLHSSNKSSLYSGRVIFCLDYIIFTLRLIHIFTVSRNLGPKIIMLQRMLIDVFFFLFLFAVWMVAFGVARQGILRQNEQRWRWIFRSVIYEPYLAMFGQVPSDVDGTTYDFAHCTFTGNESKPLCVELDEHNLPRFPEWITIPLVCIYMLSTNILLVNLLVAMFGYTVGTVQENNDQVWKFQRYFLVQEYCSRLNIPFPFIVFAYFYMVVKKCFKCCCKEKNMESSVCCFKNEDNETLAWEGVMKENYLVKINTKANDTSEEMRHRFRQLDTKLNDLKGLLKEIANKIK
Type: cell-based
How it was run: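 Activation was by 1 μM icilin, 100 μM L-menthol (test compound 2.5 min ahead) or cold buffer below 10° C (compound 1 min ahead). Calcium rise measured as aequorin luminescence in CHO cells with tetracycline-inducible human TRPM8.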

SMILES	IC50
COC(=O)c1cc(C(=O)N[C@]2(c3ccc(OC(F)(F)F)c(F)c3)CCOc3cccnc32)ccc1OC [Example 182, (S)-methyl 5-((4-(3-fluoro-4-(trifluoromethoxy)phenyl)-3,4-dihydro-2H-pyrano[3,2-b]pyridin-4-yl)carbamoyl)-2-methoxybenzoate]	36 nM
COC(=O)c1ccc(C(=O)N[C@]2(c3ccc(Cl)c(Cl)c3)CCOc3cccnc32)nc1 [Example 183, (S)-methyl 6-((4-(3,4-dichlorophenyl)-3,4-dihydro-2H-pyrano[3,2-b]pyridin-4-yl)carbamoyl) nicotinate]	21 nM
NS(=O)(=O)c1ccc(C(=O)N[C@]2(c3ccc(OC(F)(F)F)c(F)c3)CCOc3cccnc32)cc1 [Example 184, (S)-N-(4-(3-fluoro-4-(trifluoromethoxy)phenyl)-3,4-dihydro-2H-pyrano[3,2-b]pyridin-4-yl)-sulfamoylbenzamide]	50 nM
O=C(N[C@]1(c2ccc(F)c(C(F)(F)F)c2)CCOc2cccnc21)c1ccc(=O)[nH]c1 [Example 185, (S)-N-(4-(4-fluoro-3-(trifluoromethyl)phenyl)-3,4-dihydro-2H-pyrano[3,2-b]pyridin-4-yl)-6-oxo-1,6-dihydropyridine-3-carboxamide]	89 nM
COc1c(C(=O)O)cccc1C(=O)N[C@]1(c2ccc(OC(F)(F)F)c(F)c2)CCOc2cccnc21 [Example 186, (S)-3-((4-(3-fluoro-4-(trifluoromethoxy)phenyl)-3,4-dihydro-2H-pyrano[3,2-b]pyridin-4-yl)carbamoyl)-2-methoxybenzoic acid]	66 nM
CCOC(=O)c1cc(C(=O)N[C@]2(c3ccc(OC(F)(F)F)c(F)c3)CCOc3cccnc32)c[nH]1 [Example 187, (S)-ethyl 4-((4-(3-fluoro-4-(trifluoromethoxy)phenyl)-3,4-dihydro-2H-pyrano[3,2-b]pyridin-4-yl)carbamoyl)-1H-pyrrole-2-carboxylate]	54 nM
COC(=O)c1ccc(C(=O)N[C@]2(c3ccc(OC(F)(F)F)c(F)c3)CCOc3cccnc32)cc1N [Example 188, (S)-methyl 2-amino-4-((4-(3-fluoro-4-(trifluoromethoxy)phenyl)-3,4-dihydro-2H-pyrano[3,2-b]pyridin-4-yl)carbamoyl) benzoate]	15 nM
O=C(N[C@]1(c2ccc(OC(F)(F)F)c(F)c2)CCOc2cccnc21)c1ncco1 [Example 189, (S)-N-(4-(3-fluoro-4-(trifluoromethoxy)phenyl)-3,4-dihydro-2H-pyrano[3,2-b]pyridin-4-yl) oxazole-2-carboxamide]	134 nM
O=C(N[C@]1(c2ccc(OC(F)(F)F)c(F)c2)CCOc2cccnc21)c1cnsc1 [Example 190, (S)-N-(4-(3-fluoro-4-(trifluoromethoxy)phenyl)-3,4-dihydro-2H-pyrano[3,2-b]pyridin-4-yl) isothiazole-4-carboxamide]	152 nM
CCc1cc(C(=O)N[C@]2(c3ccc(OC(F)(F)F)c(F)c3)CCOc3cccnc32)ccc1C(=O)OC [Example 191, (S)-methyl 2-ethyl-4-((4-(3-fluoro-4-(trifluoromethoxy)phenyl)-3,4-dihydro-2H-pyrano[3,2-b]pyridin-4-yl)carbamoyl) benzoate]	11 nM
CCOC(=O)c1cc(C(=O)N[C@]2(c3ccc(OC(F)(F)F)c(F)c3)CCOc3cccnc32)cc(C(=O)OCC)c1 [Example 192, (S)-diethyl 5-((4-(3-fluoro-4-(trifluoromethoxy)phenyl)-3,4-dihydro-2H-pyrano[3,2-b]pyridin-4-yl)carbamoyl) isophthalate]	94 nM
COC(=O)c1ccn(CC(=O)N[C@]2(c3ccc(OC(F)(F)F)c(F)c3)CCOc3cccnc32)c1 [Example 193, (S)-melhyl 1-(2-((4-(3-fluoro-4-(trifluoromethoxy)phenyl)-3,4-dihydro-2H-pyrano[3,2-b]pyridin-4-yl)amino)-2-oxoethyl)-1H-pyrrole-3-carboxylate]	584 nM
O=C(N[C@]1(c2ccc(Cl)c(Cl)c2)CCOc2cccnc21)c1ccc(=O)[nH]c1 [Example 194, (S)-N-(4-(3,4-dichlorophenyl)-3,4-dihydro-2H-pyrano[3,2-b]pyridin-4-yl)-6-oxo-1,6-dihydropyridine-3-carboxamide]	44 nM
NC(=O)c1ccc(C(=O)N[C@]2(c3ccc(OC(F)(F)F)c(F)c3)CCOc3cccnc32)cc1 [Example 195, (S)-N1-(4-(3-fluoro-4-(trifluoromethoxy)phenyl)-3,4-dihydro-2H-pyrano[3,2-b]pyridin-4-yl) terephthalamide 2,2,2-trifluoroacetate]	6 nM
COC(=O)c1cc2ccc(C(=O)N[C@]3(c4ccc(OC(F)(F)F)c(F)c4)CCOc4cccnc43)cc2n1C [Example 196, (S)-methyl 6-((4-(3-fluoro-4-(trifluoromethoxy)phenyl)-3,4-dihydro-2H-pyrano[3,2-b]pyridin-4-yl)carbamoyl)-1-methyl-1H-indole-2-carboxylate]	7 nM
O=C(N[C@]1(c2ccc(OC(F)(F)F)c(F)c2)CCOc2cccnc21)c1ccc(C(=O)O)c(Cl)c1 [Example 197, (S)-2-chloro-4-((4-(3-fluoro-4-(trifluoromethoxy)phenyl)-3,4-dihydro-2H-pyrano[3,2-b]pyridin-4-yl)carbamoyl) benzoic acid 2,2,2-trifluoroacetate]	92 nM
O=C(N[C@]1(c2ccc(OC(F)(F)F)c(F)c2)CCOc2cccnc21)c1cscn1 [Example 198, (S)-N-(4-(3-fluoro-4-(trifluoromethoxy)phenyl)-3,4-dihydro-2H-pyrano[3,2-b]pyridin-4-yl) thiazole-4-carboxamide]	35 nM
Cc1cc([C@@]2(NC(=O)c3ccc(=O)[nH]c3)CCOc3cccnc32)ccc1OC(F)(F)F [Example 199, (S)-N-(4-(3-methyl-4-(trifluoromethoxy)phenyl)-3,4-dihydro-2H-pyrano[3,2-b]pyridin-4-yl)-6-oxo-1,6-dihydropyridine-3-carboxamide]	12 nM
O=C(N[C@]1(c2ccc(OC(F)(F)F)c(F)c2)CCOc2cccnc21)c1cc(Cl)on1 [Example 200, (S)-5-chloro-N-(4-(3-fluoro-4-(trifluoromethoxy)phenyl)-3,4-dihydro-2H-pyrano[3,2-b]pyridin-4-yl) isoxazole-3-carboxainide]	163 nM
COC(=O)c1ccnc(C(=O)N[C@]2(c3ccc(OC(F)(F)F)c(F)c3)CCOc3cccnc32)c1 [Example 201, (S)-methyl 2-((4-(3-fluoro-4-(trifluoromethoxy)phenyl)-3,4-dihydro-2H-pyrano[3,2-b]pyridin-4-yl)carbamoyl) isonicotinate]	21 nM
C[C@@H](O)Cn1cc(C(=O)N[C@]2(c3ccc(OC(F)(F)F)c(F)c3)CCOc3cccnc32)ccc1=O [Example 202, N-((S)-4-(3-fluoro-4-(trifluoromethoxy)phenyl)-3,4-dihydro-2H-pyrano[3,2-b]pyridin-4-yl)-1-((R)-2-hydroxypropyl)-6-oxo-1,6-dihydropyridine-3-carboxamide]	27 nM
O=C(N[C@]1(c2ccc(OC(F)(F)F)c(F)c2)CCOc2cccnc21)c1ccc(Br)s1 [Example 203, (S)-5-bromo-N-(4-(3-fluoro-4-(trifluoromethoxy)phenyl)-3,4-dihydro-2H-pyrano[3,2-b]pyridin-4-yl) thiophene-2-carboxamide]	74 nM
O=C(N[C@]1(c2ccc(C(F)(F)F)cc2)CCOc2cccnc21)c1cc(F)c(O)c(F)c1 [Example 205, (S)-3,5-difluoro-4-hydroxy-N-(4-(4-(trifluoromethyl)phenyl)-3,4-dihydro-2H-pyrano[3,2-b]pyridin-4-yl) benzamide]	4 nM
O=C(N[C@]1(c2ccc(OC(F)(F)F)c(F)c2)CCOc2cccnc21)c1ccc(Br)cn1 [Example 206, (S)-5-bromo-N-(4-(3-fluoro-4-(trifluoromethoxy)phenyl)-3,4-dihydro-2H-pyrano[3,2-b]pyridin-4-yl) picolinamide]	13 nM
O=C(N[C@]1(c2ccc(OC(F)(F)F)c(F)c2)CCOc2cccnc21)c1cc(F)c(O)c(F)c1 [Example 207, (S)-3,5-difluoro-N-(4-(3-fluoro-4-(trifluoromethoxy)phenyl)-3,4-dihydro-2H-pyrano[3,2-b]pyridin-4-yl)-4-hydroxybenzamide]	1 nM
O=C(N[C@]1(c2ccc(OC(F)(F)F)c(F)c2)CCOc2cccnc21)c1ccc(Br)o1 [Example 208, (S)-5-bromo-N-(4-(3-fluoro-4-(trifluoromethoxy)phenyl)-3,4-dihydro-2H-pyrano[3,2-b]pyridin-4-yl)furan-2-carboxamide]	11 nM
COC(=O)c1cc2ccc(C(=O)N[C@]3(c4ccc(OC(F)(F)F)c(F)c4)CCOc4cccnc43)cc2[nH]1 [Example 209, (S)-methyl 6-((4-(3-fluoro-4-(trifluoromethoxy)phenyl)-3,4-dihydro-2H-pyrano[3,2-b]pyridin-4-yl)carbamoyl)-1H-indole-2-carboxylate]	45 nM
O=C(N[C@]1(c2ccc(OC(F)(F)F)cc2)CCOc2cccnc21)c1ncc[nH]1 [Example 210, (S)-N-(4-(4-(trifluoromethoxy)phenyl)-3,4-dihydro-2H-pyrano[3,2-b]pyridin-4-yl)-1H-imidazole-2-carboxamide formate]	2310 nM
O=C(N[C@]1(c2ccc(OC(F)(F)F)cc2)CCOc2cccnc21)c1cc[nH]n1 [Example 211, (S)-N-(4-(4-(trifluoromethoxy)phenyl)-3,4-dihydro-2H-pyrano[3,2-b]pyridin-4-yl)-1H-pyrazole-3-carboxamide formate]	336 nM
O=C(N[C@]1(c2ccc(OC(F)(F)F)cc2)CCOc2cccnc21)c1nnc[nH]1 [Example 212, (S)-N-(4-(4-(trifluoromethoxy)phenyl)-3,4-dihydro-2H-pyrano[3,2-b]pyridin-4-yl)-4H-1,2,4-triazole-3-carboxamide formate]	1690 nM

From US20150031668A1, “CHROMAN DERIVATIVES AS TRPM8 INHIBITORS” (AMGEN INC., priority 2013, published 2015)
